# Measured values reported in patent US8058437B2, “(Pyrroloquinoxalinyl) pyrazinecarbohydrazide-oxalic acid co-crystal for treatment of cancer and other diseases” (Novelix Pharmaceuticals, Inc., priority 2008, dated 2011).
# Assay: Salt formation experiments / physical characteristics of solid forms
# Assay type: physicochemical
# Conditions: solid hydrochloride salt
# Description: Thus, a series of experiments was conducted to assess the preparation of NVX-144 salts of acids other than hydrochloric acid as possible novel compounds better suited to pharmaceutical preparations. […] As expected, NVX-144 base readily formed salts with strong organic acids.
# Although oxalic acid co-crystals are rare, Trask et al. have reported a co-crystal of caffeine with oxalic acid (see Trask et al., “Pharmaceutical Cocrystallization: Engineering a Remedy for Caffeine Hydration,” Crystal Growth & Design, 5, 1013-21 (2005)).
# Thus NVX-144 would not be expected to form a salt with oxalic acid, a relatively strong dicarboxylic acid.
structure (smiles),measurement,value
"Cl.O=C(NNc1nc2cc(F)ccc2n2cccc12)c1cnccn1 [NVX-144.HCl, N′-(7-fluoropyrrolo[1,2a]quinoxalin-4-yl)pyrazine-2-carbohydrazide hydrochloride]",physical characteristics of crystals,"fluffy, statically-charged, hygroscopic crystals"
